One assay has as its target T1, recombinant human TYRO3 (Homo sapiens, UniProt Q06418).
T1 construct: purchased Invitrogen
T1 sequence (Q06418 41-890): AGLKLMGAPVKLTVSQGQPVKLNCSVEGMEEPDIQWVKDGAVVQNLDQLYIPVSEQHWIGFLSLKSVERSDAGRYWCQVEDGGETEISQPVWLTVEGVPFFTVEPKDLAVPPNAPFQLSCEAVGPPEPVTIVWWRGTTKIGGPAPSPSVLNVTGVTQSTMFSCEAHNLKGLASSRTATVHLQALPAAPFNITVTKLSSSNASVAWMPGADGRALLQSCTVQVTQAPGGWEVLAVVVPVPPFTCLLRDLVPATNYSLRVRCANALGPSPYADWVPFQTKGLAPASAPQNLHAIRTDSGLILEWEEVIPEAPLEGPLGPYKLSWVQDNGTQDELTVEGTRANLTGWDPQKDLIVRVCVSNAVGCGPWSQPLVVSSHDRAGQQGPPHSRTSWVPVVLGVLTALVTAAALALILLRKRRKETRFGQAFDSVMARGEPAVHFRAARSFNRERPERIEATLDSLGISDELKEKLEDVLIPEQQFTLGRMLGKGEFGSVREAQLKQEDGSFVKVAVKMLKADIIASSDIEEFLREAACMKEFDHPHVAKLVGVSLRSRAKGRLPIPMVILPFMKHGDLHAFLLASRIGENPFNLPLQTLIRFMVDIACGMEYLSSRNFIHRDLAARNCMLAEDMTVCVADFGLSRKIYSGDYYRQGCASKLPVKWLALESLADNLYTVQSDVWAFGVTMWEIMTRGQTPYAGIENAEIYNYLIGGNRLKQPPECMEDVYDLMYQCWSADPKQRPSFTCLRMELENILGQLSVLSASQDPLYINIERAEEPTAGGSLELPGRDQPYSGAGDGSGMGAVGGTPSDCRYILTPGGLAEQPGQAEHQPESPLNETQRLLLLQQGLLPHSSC
As to the kind of experiment: HTRF KinEASE-TK biochemical potency, TYRO3. The note with it: 1 nM TYRO3, 700 μM ATP. The procedure:
(§1) Purified recombinant human AXL, TYRO3 and MER proteins were purchased from Invitrogen™. 10 nM AXL, 2 nM TYRO3 or MER were incubated with varying concentrations of compounds in 50 mM HEPES, pH 7.4, 10 mM MgCl2, 0.01% BSA, 1 mM DTT and 2% DMSO in a total volume of 20 μl in a 384-well microplate (Corning™ #3640) at RT for 1 h. The AXL, TYRO3 and MER enzymatic reaction was initiated by transferring 10 μl of enzyme and compound mixture into 10 μl of 1.6 μM TK Substrate-biotin (HTRF® KinEASE-TK kit, Cisbio) and 1400 μM ATP pre-incubated in 50 mM HEPES, pH 7.4, 10 mM MgCl2, 0.01% BSA, 1 mM DTT in a 384-well microplate (Corning™ #3640) at RT, giving the final reaction conditions: 5 nM AXL, 1 nM TYRO3 or MER, 800 nM TK Substrate-biotin and 700 μM ATP in 50 mM HEPES, pH 7.4, 10 mM MgCl2, 0.01% BSA, 1 mM DTT and 1% DMSO with varying concentrations of compounds. Following 2 h incubation at RT, the AXL, TYRO3 and MER enzymatic reaction was stopped by transfer of 10 μl of reaction into 10 μl of detection mix (400 nM Streptavidin-XL665, 200-fold dilution TK Antibody-Cryptate and detection buffer, HTRF® KinEASE-TK kit, Cisbio) in a white 384-well microplate (Perkin Elmer, OptiPlate 384). After 1 h incubation at RT, the plate was put into a plate reader (Evision) to read at 665/620 nm (acceptor/donor) for HTRF. The value of the DMSO blank (MIN inhibition=100% activity) was used as a negative control. The positive control was established by adding 5 μl of enzyme and DMSO mixture into 10 μl of detection mix followed by addition of 5 μl of TK Substrate-biotin and ATP mixture (MAX inhibition=0% activity). To calculate the percent activity, Equation 1 was used. Ratio665/620 is the value at a given compound concentration: […]
(In general: In TR-FRET formats the signal depends on donor and acceptor labels being close together.)

A further assay has as its target T2, recombinant human MER (Homo sapiens, UniProt Q12866).
T2 construct: purchased Invitrogen
T2 sequence (Q12866 21-999): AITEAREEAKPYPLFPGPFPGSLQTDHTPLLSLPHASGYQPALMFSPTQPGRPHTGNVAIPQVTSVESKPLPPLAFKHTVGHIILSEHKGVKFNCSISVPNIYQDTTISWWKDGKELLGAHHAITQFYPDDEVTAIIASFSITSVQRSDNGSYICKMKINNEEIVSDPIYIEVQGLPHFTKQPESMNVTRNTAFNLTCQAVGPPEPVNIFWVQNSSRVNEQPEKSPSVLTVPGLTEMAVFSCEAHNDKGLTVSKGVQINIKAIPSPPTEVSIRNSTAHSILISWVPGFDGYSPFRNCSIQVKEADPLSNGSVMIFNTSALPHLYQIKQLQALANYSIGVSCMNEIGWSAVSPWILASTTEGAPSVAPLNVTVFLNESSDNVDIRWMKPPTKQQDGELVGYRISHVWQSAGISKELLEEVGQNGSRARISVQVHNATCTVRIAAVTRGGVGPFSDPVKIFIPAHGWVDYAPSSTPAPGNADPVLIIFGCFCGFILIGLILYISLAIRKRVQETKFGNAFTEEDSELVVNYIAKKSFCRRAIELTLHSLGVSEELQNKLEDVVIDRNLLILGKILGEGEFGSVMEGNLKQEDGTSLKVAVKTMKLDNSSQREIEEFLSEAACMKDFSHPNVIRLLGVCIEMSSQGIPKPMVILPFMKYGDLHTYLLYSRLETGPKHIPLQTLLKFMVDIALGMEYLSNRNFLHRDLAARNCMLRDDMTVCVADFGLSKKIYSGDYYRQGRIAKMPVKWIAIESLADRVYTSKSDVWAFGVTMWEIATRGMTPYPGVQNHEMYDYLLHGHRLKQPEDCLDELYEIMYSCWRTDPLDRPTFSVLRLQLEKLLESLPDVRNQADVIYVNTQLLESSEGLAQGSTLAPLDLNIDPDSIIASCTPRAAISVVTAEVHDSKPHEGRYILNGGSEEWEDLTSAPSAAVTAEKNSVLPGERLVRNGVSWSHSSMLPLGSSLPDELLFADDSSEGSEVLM
The assay can be described thus: HTRF KinEASE-TK biochemical potency, MER. The note with it: 1 nM MER, 700 μM ATP. The procedure:
as §1

A value given as a limit tells only on which side of the number the result lay.

For `O=C1NCCOc2cc(-c3n[nH]c4ncc(-c5ccc6c(c5)CCC(N5CCCC5)CC6)cc34)ccc21` (racemic) [Example 1, 8-{5-[7-(Pyrrolidin-1-yl)-6,7,8,9-tetrahydro-5H-benzo[7]annulen-2-yl]-1H-pyrazolo[3,4-b]pyridin-3-yl}-2,3,4,5-tetrahydro-1,4-benzoxazepin-5-one], the IC50 on recombinant human TYRO3 and at recombinant human MER was less than 0.1 µM each time.

On to `O=C1NCCOc2cc(-c3n[nH]c4ncc(-c5ccc6c(c5)CC[C@H](N5CCCC5)CC6)cc34)ccc21` (single isomer, unassigned) [Example 56], for which the IC50 (in general, the point on the concentration scale where inhibition reaches its midpoint) on recombinant human TYRO3 is less than 0.1 µM; at recombinant human MER, 0.1 to 1 µM.

On to `O=C1NCCOc2cc(-c3n[nH]c4ncc(-c5ccc6c(c5)CC[C@@H](N5CCCC5)CC6)cc34)ccc21` (single isomer, unassigned) [Example 57], for which the concentration for half-maximal inhibition (IC50) on recombinant human TYRO3 and on recombinant human MER was less than 0.1 µM throughout.

With `O=C1NCCOc2cc(-c3n[nH]c4ncc(-c5ccc6c(c5)CCC(N5CCCC5)C6)cc34)ccc21` (stereo not drawn) [Example 2, 8-{5-[6-(Pyrrolidin-1-yl)-5,6,7,8-tetrahydronaphthalen-2-yl]-1H-pyrazolo[3,4-b]pyridin-3-yl}-2,3,4,5-tetrahydro-1,4-benzoxazepin-5-one], the IC50 at recombinant human TYRO3 and on recombinant human MER was less than 0.1 µM throughout.

For the molecule `O=C1NCCOc2cc(-c3n[nH]c4ncc(-c5ccc6c(c5)CC(N5CCCC5)CC6)cc34)ccc21` (stereo not drawn) [Example 3, 8-{5-[7-(Pyrrolidin-1-yl)-5,6,7,8-tetrahydronaphthalen-2-yl]-1H-pyrazolo[3,4-b]pyridin-3-yl}-2,3,4,5-tetrahydro-1,4-benzoxazepin-5-one], the IC50 on recombinant human TYRO3 and at recombinant human MER was less than 0.1 µM in each case.

As for `O=C1NCCOc2cc(-c3n[nH]c4ncc(-c5ccc6c(c5)CCC(N[C@H]5CCOC5)C6)cc34)ccc21` (stereo partly drawn) [Example 4, 8-[5-(6-{[(3S)—Oxolan-3-yl]amino}-5,6,7,8-tetrahydronaphthalen-2-yl)-1H-pyrazolo[3,4-b]pyridin-3-yl]-2,3,4,5-tetrahydro-1,4-benzoxazepin-5-one], the IC50 at recombinant human TYRO3 and on recombinant human MER was less than 0.1 µM throughout.

Take `O=C1NCCOc2cc(-c3n[nH]c4ncc(-c5ccc6c(c5)CCC(N[C@@H]5CCOC5)C6)cc34)ccc21` (stereo partly drawn) [Example 5, 8-[5-(6-{[(3R)—Oxolan-3-yl]amino}-5,6,7,8-tetrahydronaphthalen-2-yl)-1H-pyrazolo[3,4-b]pyridin-3-yl]-2,3,4,5-tetrahydro-1,4-benzoxazepin-5-one]: the IC50 at recombinant human TYRO3 and on recombinant human MER was less than 0.1 µM each time.

For the molecule `C[C@@H]1CCCN1C1CCc2ccc(-c3cnc4[nH]nc(-c5cc(F)c6c(c5)OCCNC6=O)c4c3)cc2CC1` (stereo partly drawn) [Example 6, 6-Fluoro-8-(5-{7-[(2R)-2-methylpyrrolidin-1-yl]-6,7,8,9-tetrahydro-5H-benzo[7]annulen-2-yl}-1H-pyrazolo[3,4-b]pyridin-3-yl)-2,3,4,5-tetrahydro-1,4-benzoxazepin-5-one], the 50% inhibitory concentration (IC50) at recombinant human TYRO3 and at recombinant human MER was less than 0.1 µM each time.

Take `O=C1NCCOc2cc(-c3n[nH]c4ncc(-c5ccc6c(c5)CCN(C5CCCC5)CC6)cc34)ccc21` [Example 7, 8-[5-(3-Cyclopentyl-2,3,4,5-tetrahydro-1H-3-benzazepin-7-yl)-1H-pyrazolo[3,4-b]pyridin-3-yl]-2,3,4,5-tetrahydro-1,4-benzoxazepin-5-one]: the half-maximal inhibitory concentration (IC50) on recombinant human TYRO3 and at recombinant human MER was less than 0.1 µM each time.

On to `O=C1NCCOc2cc(-c3n[nH]c4ncc(-c5ccc6c(c5)CCN(C5CCCC5)C6)cc34)ccc21` [Example 9, 8-(5-(2-Cyclopentyl-1,2,3,4-tetrahydroisoquinolin-6-yl)-1H-pyrazolo[3,4-b]pyridin-3-yl)-3,4-dihydrobenzo[f][1,4]oxazepin-5(2H)-one], for which the IC50 at recombinant human TYRO3 and at recombinant human MER was less than 0.1 µM in each case.

As to `O=C1NCCOc2cc(-c3n[nH]c4ncc(-c5ccc6c(c5)CN(C5CCCC5)CC6)cc34)ccc21` [Example 10, 8-(5-(2-Cyclopentyl-1,2,3,4-tetrahydroisoquinolin-7-yl)-1H-pyrazolo[3,4-b]pyridin-3-yl)-3,4-dihydrobenzo[f][1,4]oxazepin-5(2H)-one], the concentration for half-maximal inhibition (IC50) at recombinant human TYRO3 and at recombinant human MER was less than 0.1 µM each time.

Take `O=C1NCCOc2cc(-c3n[nH]c4ncc(-c5ccc6c(c5)CCN(C5COC5)CC6)cc34)ccc21` [Example 11, 8-(5-(3-(Oxetan-3-yl)-2,3,4,5-tetrahydro-1H-benzo[d]azepin-7-yl)-1H-pyrazolo[3,4-b]pyridin-3-yl)-3,4-dihydrobenzo[f][1,4]oxazepin-5(2H)-one]: the IC50 on recombinant human TYRO3 and on recombinant human MER was less than 0.1 µM each time.

As for `O=C1NCCOc2cc(-c3n[nH]c4ncc(-c5ccc6c(c5)CCN(C5COC5)C6)cc34)ccc21` [Example 12, 8-(5-(2-(Oxetan-3-yl)-1,2,3,4-tetrahydroisoquinolin-6-yl)-1H-pyrazolo[3,4-b]pyridin-3-yl)-3,4-dihydrobenzo[f][1,4]oxazepin-5(2H)-one], the values for the IC50 at recombinant human TYRO3 and at recombinant human MER were less than 0.1 µM and 0.1 to 1 µM, respectively.

Turning to `COCCN1CCc2cc(-c3cnc4[nH]nc(-c5ccc6c(c5)OCCNC6=O)c4c3)ccc2C1` [Example 13, 8-(5-(2-(2-Methoxyethyl)-1,2,3,4-tetrahydroisoquinolin-6-yl)-1H-pyrazolo[3,4-b]pyridin-3-yl)-3,4-dihydrobenzo[f][1,4]oxazepin-5(2H)-one], the IC50 at recombinant human TYRO3 was less than 0.1 µM; at recombinant human MER, 0.1 to 1 µM.

Turning to `COCCN1CCc2ccc(-c3cnc4[nH]nc(-c5ccc6c(c5)OCCNC6=O)c4c3)cc2CC1` [Example 15, 8-(5-(3-(2-Methoxyethyl)-2,3,4,5-tetrahydro-1H-benzo[d]azepin-7-yl)-1H-pyrazolo[3,4-b]pyridin-3-yl)-3,4-dihydrobenzo[f][1,4]oxazepin-5(2H)-one], the IC50 on recombinant human TYRO3 and at recombinant human MER was less than 0.1 µM each time.

(Values after patent US20240226115A1, “AXL INHIBITOR COMPOUNDS” (ARCUS BIOSCIENCES, INC., priority 2021, published 2024).)
